# Patent US20220313620A1, “COMPOSITION FOR PREVENTING AND TREATING TAUOPATHIES” (SERVICIO ANDALUZ DE SALUD, priority 2019, published 2022)
# Test system: mTOR
# Test: Hypothalamic mTOR phosphorylation (western blot) after acute oral gavage
# Assay type: in vivo
# Conditions: oral 500 mg/kg, adult male Wistar rats, hypothalamus, FIG. 3F
# Experimental: After 18 hours of fasting, D-Pinitol dissolved in water was administered acutely by gavage (100 mg/kg in a first study, and 500 mg/kg in a subsequent study). After administration, the animals were sacrificed in groups at different times (being time 0 the administration of D-Pinitol). For the first study (100 mg/kg), groups of animals were sacrificed at times: 10, 20, 30, 60, 120, 240 and 360 minutes after administration; for the second study (500 mg/kg), animals were sacrificed at times: 60, 120 and 240 minutes after administration. As a control group, a group was administered only with water (by gavage). Animals were anesthetized with sodium pentobarbital (50 mg/Kg, i.p.), blood, brain and liver samples were collected. Blood was centrifuged (2100 g for 8 min, 4° C.) and the plasma kept for further analysis. Liver and brain samples were flash-frozen in liquid N2, then stored at −80° C. until further analysis. Brain extract. […] The expression of protein including mTOR (289 kDa) and Adaptin (100 kDa) were analysed by western blot. […] Bands were quantified by densitometric analysis using ImageJ software (Rasband, WS, Image), US National Institutes of Health, Bethesda, Md., USA).
compound,measurement,value
"COC1[C@@H](O)[C@@H](O)C(O)[C@H](O)[C@H]1O (stereo partly drawn) [DPIN, (1S,2S,4S,5R)-6-methoxycyclohexane-1,2,3,4,5-pentol]",hypothalamic mTOR signaling through its phosphorylation,activation
